Measured values: patent US20230103631A1, “PEPTIDES AS SELECTIVE GIP RECEPTOR AGONISTS” (Sanofi, priority 2020, published 2023)
*1 amine or outer side, *2 acyl side, *3 side chain or, on linkers, in order; H or OH if unused. Where a SMILES comes first, the peptide text is derived from it. Side-chain parts run from the residue outwards. [ ]: non-standard residue; d: D form. The star is where a group is joined. C18 diacid = O=C(O)CCCCCCCCCCCCCCCCC(=O)*; γGlu = O=C(O)[C@H](CCC(=O)[*:2])N[*:1]; AEEA = NCCOCCOCC(=O)O; Aib = CC(C)(N)C(=O)O

Assays:
[1] = Chemical stability assessment (relative purity loss by UHPLC-UV); format: physicochemical; settings: Chemical stability buffer system A: 20 mM phosphate buffer pH 7.4
Protocol: Purity of a peptide batch was determined through UHPLC/MS prior to chemical stability measurement. The target concentration was […] pure compound. Solutions from solid samples were prepared in the following buffer systems with a concentration of ˜300 μM compound based on the previously determined % purity:
Chemical stability buffer system A) 20 mM phosphate buffer pH 7.4,
Chemical stability buffer system B) 8 mM phosphate buffer pH 7.4, 14 mg/ml propylene glycol, 5.5 mg/ml phenol
Chemical stability buffer system C) 100 mM phosphate buffer pH 7.4, 2.7 mg/ml m-cresol
Prepared solutions were filtered through […] pore size and filled into sterilized glass containers under laminar flow conditions.
Glass containers were stored for 28 days at 5 and 40° C. After this time, the samples were centrifuged for 15 min at 2500 RCF. Then 1.5 μl of the undiluted supernatant were analysed with UHPLC-UV.
The chemical stability was rated through the relative loss of purity calculated by the equation:
[(purity after 28 days at 5° C.)−(purity after 28 days at 40° C.)]/(purity after 28 days at 5° C.)]*100%
The purity is calculated as
[(peak area peptide)/(total peak area)]*100%
The analytical methods used were Analytical UHPLC Method B or C.
Peptide samples were prepared in Chemical stability buffer system A or B and stability was assessed as described in Methods.

physchem = format: physicochemical
Method in brief: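 Peptide at 10 mg/ml (purity-corrected) in 100 mM phosphate pH 7.4, alone or with 2.7 mg/ml m-cresol; 1 h gentle agitation, then 24 h at 5 °C. Supernatant after 15 min at 2500 RCF quantified by UHPLC-UV against reference peptide, adjusted for extinction coefficients.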

[2] = target: human GLP-1 receptor (hGLP-1R) (Homo sapiens, UniProt P43220); test: cAMP HTRF assay, HEK-293 cell line over-expressing human GLP-1 receptor; format: cell-based; settings: HEK-293, cAMP, 0% HSA
Sequence of human GLP-1 receptor (hGLP-1R) (P43220 24-463): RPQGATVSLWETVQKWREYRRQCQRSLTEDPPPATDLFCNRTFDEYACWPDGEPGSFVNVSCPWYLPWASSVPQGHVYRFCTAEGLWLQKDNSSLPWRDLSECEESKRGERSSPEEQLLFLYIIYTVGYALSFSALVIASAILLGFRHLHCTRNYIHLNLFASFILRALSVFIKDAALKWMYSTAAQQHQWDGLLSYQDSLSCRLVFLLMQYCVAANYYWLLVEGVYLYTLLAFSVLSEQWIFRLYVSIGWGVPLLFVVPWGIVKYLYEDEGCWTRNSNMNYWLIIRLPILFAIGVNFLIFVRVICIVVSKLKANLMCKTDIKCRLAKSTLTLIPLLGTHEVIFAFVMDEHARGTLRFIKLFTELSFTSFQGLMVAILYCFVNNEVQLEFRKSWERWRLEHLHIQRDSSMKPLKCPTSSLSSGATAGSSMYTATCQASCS
Method in brief: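 Thawed HEK-293 cells over-expressing human GLP-1R (5000 cells/well) in HBSS/20 mM HEPES buffer, with 0.1% HSA where stated, incubated with compound for 30 min at room temperature. Generated cAMP quantified by HTRF.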

human GIP receptor = target: T1, human GIP receptor (Homo sapiens, UniProt P48546); test: cAMP HTRF assay in human adipocytes endogenously expressing the human GIP receptor; format: cell-based; settings: read-out: hGIPR Emax
T1 construct: human adipocytes endogenously expressing the human GIP receptor; host or cells: human preadipocytes (Lonza) differentiated to adipocytes
T1 sequence (P48546 22-466): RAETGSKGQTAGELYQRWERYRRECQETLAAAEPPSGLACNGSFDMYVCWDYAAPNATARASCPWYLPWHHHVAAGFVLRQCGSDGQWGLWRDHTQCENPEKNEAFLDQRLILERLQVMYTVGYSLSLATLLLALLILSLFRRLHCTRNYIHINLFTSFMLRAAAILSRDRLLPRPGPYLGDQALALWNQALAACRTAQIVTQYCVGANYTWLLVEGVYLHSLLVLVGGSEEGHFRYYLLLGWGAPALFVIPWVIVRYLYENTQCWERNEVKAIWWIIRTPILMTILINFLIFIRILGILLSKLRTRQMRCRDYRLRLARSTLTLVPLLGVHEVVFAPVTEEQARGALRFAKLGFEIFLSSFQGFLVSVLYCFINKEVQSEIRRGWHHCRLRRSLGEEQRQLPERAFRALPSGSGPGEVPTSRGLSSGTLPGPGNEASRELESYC
Protocol: For this, one vial of human preadipocytes (˜10^6 cells; Lonza) was thawed in a T-75 cell culture dish.
After 3 days, the cells were washed with PBS and 1.5 ml Trypsin, incubated for 4 min, then resuspended in medium, centrifugated for 10 min @ 300 rcf RT, resuspended again and distributed to four T-75 cell culture dishes.
After 5 days, the cells were washed with PBS and 1.5 ml Trypsin, incubated for 4 min, then resuspended in medium, centrifugated for 10 min @ 300 rcf RT, resuspended again and sawn in T-75 dishes (2.5×10^6 cells per dish) in 15 ml Differentiation medium each.
After 6 days of differentiation, 5000 cells per well were dispensed on a 96-well plate (#CLS3694 from Corning®, Sigma-Aldrich). For measurement of cAMP generation, 25 μL of test compound was added to each well of the 96-well plate, followed by incubation for 30 min at room temperature.
The cAMP generated following test compound stimulation was determined using a kit from Cisbio Corp. based on HTRF (Homogenous Time Resolved Fluorescence). The cAMP assay was performed according to manufacturer's instructions (Cisbio).
The cAMP content of cells was determined using a kit from Cisbio Corp. based on HTRF (Homogenous Time Resolved Fluorescence).

CC[C@H](C)[C@H](NC(=O)[C@H](Cc1ccccc1)NC(=O)[C@H](CCC(=O)O)NC(=O)[C@H](CCC(=O)O)NC(=O)[C@H](CCC(N)=O)NC(=O)[C@H](Cc1c[nH]cn1)NC(=O)[C@@H](NC(=O)[C@H](CCCNC(=N)N)NC(=O)[C@H](CC(=O)O)NC(=O)[C@H](CCCCNC(=O)COCCOCCNC(=O)COCCOCCNC(=O)CC[C@H](NC(=O)CCCCCCCCCCCCCCCCC(=O)O)C(=O)O)NC(=O)C(C)(C)NC(=O)[C@@H](NC(=O)[C@H](CO)NC(=O)[C@H](CC(C)C)NC(=O)[C@H](CC(=O)O)NC(=O)[C@H](CO)NC(=O)[C@@H](NC(=O)[C@H](Cc1ccccc1)NC(=O)[C@@H](NC(=O)CNC(=O)[C@H](CCC(=O)O)NC(=O)C(C)(C)NC(=O)[C@@H](N)Cc1ccc(O)cc1)[C@@H](C)O)[C@@H](C)CC)[C@@H](C)CC)[C@@H](C)CC)C(=O)N[C@@H](CCC(=O)O)C(=O)N[C@@H](Cc1c[nH]c2ccccc12)C(=O)N[C@@H](CC(C)C)C(=O)N[C@@H](CC(C)C)C(=O)N[C@@H](C)C(=O)N[C@@H](CCC(N)=O)C(=O)NCC(=O)N1CCC[C@H]1C(=O)N[C@@H](CO)C(=O)N[C@@H](CO)C(=O)NCC(=O)N[C@@H](C)C(=O)N1CCC[C@H]1C(=O)N1CCC[C@H]1C(=O)N1CCC[C@H]1C(=O)N[C@@H](CO)C(=O)O [SEQ ID NO: 11, H2N-Y-Aib-E-G-T-F-I-S-D-I-S-I-Aib-K[{AEEA}2-gGlu-C18OH]-DRIHQEEFIEWILAQGPSSGAPPPS-OH] (H-Y[Aib]EGTFISDLSI[Aib]K([AEEA-AEEA-γGlu-C18 diacid])DRIHQEEFIEWLLAQGPSSGAPPPS-OH)
Relative purity loss over 28 days at 40° C. [1]: 6.1% | Soluble amount (physchem; 24 h, pH 7.4): >9.8 mg/mL | solubility at 24 h (physchem; pH 7.4, Soluble amount): > 9800 µg/mL | EC50 [2]: > 0.01 µM | Emax (human GIP receptor): 122%
